Earlier results in patent publication US7183417B2, “Simple stereocontrolled synthesis of salinosporamide A” (priority 2004, dated 2007).

Key:
[1] = tested on: many tumor cell lines; details: read-out: in vitro cytotoxic activity IC50
[2] = tested on: proteasome; details: qualitative statement from the literature

| SMILES | IC50 [1] [nM] | proteasome inhibition (in words) [2] |
| --- | --- | --- |
| C[C@@]12OC(=O)[C@]1([C@@H](O)[C@@H]1C=CCCC1)NC(=O)[C@@H]2CCCl [Salinosporamide A] | ≤ 10 | even more effective proteasome inhibitor than omuralide |
| CC(C)[C@H](O)[C@@]12NC(=O)[C@H](C)[C@@H]1OC2=O [omuralide, reference compound] | – | potent inhibitor of proteasome function |
